{"source": "patent US7250157B2", "about": "“Dermatological compositions and methods” (Applied Genetics Incorporated Dermatics, priority 1996, dated 2007)", "key": {"[1]": {"tested_on": "Cloudman S91 mouse melanoma cell line", "experiment": "Microscopic morphology (differentiation) of S91 cells", "format": "cell-based", "procedure": "The Cloudman S91 mouse melanoma cell line was obtained from American Type Culture Collection (ATCC). Cells were cultured in Dulbecco's Modified Eagles Medium (DMEM) containing 10% calf serum, 2 mM L-glutamine, 10 U Penicillin/ml and 10 ug Streptomycin/ml according to a previously published protocol (Eller, et al., Proc. Natl. Acad. Sci. 93:1087-92. 1996). For testing propylene glycol and analogues for induction of melanogenesis, S91 cells were plated at 10^5 cells/35 mm dish in 10% calf serum. One day after plating, media was removed and replaced with media containing 2% calf serum and test compounds (Eller, et al., 1996). Cells were cultured for 6 days at 37° C. in 5% CO2 in a humidified incubator. Following this treatment period, cells were examined microscopically and the portion of dedifferentiated and differentiated cells was estimated. Previous studies have shown that dedifferentiated S91 cells have a rounded, spindly appearance while differentiated S91 cells have a flattened, cuboidal, multipolar and dendritic appearance (Orlow, et al., Exp. Cell Res. 191:209-218, 1990)."}, "[2]": {"tested_on": "Cloudman S91 mouse melanoma cell line", "experiment": "Cell count (proliferation, toxicity) of treated S91 cells", "format": "cell-based", "method_in_brief": "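S91 cells in 2% calf serum exposed to test compounds for 6 days at 37° C; differentiated vs dedifferentiated morphology scored microscopically and trypsin detachment time recorded. Cells counted for proliferation; melanin extracted in 1N NaOH, A475 against melanin standards, expressed as pg melanin/cell.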"}, "[3]": {"tested_on": "Cloudman S91 mouse melanoma cell line", "experiment": "Trypsinization detachment time of S91 cells", "format": "cell-based", "procedure": "Following this microscopic examination, cells were detached from dishes by trypsin. The time required for detachment by trypsin was recorded as an additional indicator of the phenotypic effects of test compounds. For each treatment, a subsample of cells was counted to determine the effects of treatment compounds on cellular proliferation. The remainder of cells were used for determination of melanin content. Melanin was extracted from cells by vortexing for 15 min in 1N NaOH. Standards were prepared by dissolving melanin (Sigma) in 1 N NaOH (Eller, et al., 1996). Absorbance of standards and samples was measured at 475 nm. Melanin was expressed as pg melanin/cell."}, "[4]": {"tested_on": "normal human epidermal melanocytes (NHEM)", "experiment": "Morphological differentiation of NHEM", "format": "cell-based", "conditions": "5 mM", "procedure": "Additionally, the length of dendrites was increased approximately 2-3-fold following treatment with 5 mM 5-NBene-2,2-DM, and there was an increase in the number of secretatory vesicles at the termini of dendrites (arrows in FIGS. 3A and 3B). […] Increased secretion of melanosomes resulting from treatment with 5 mM 5-NBene-2,2-DM was reflected in increased extracellular particulate tyrosinase activity (Example 7, Table 11)."}, "[5]": {"tested_on": "nitric oxide in cell-free media from S91 cells", "experiment": "Nitric oxide in cell-free media from S91 cells (Greiss reagent)", "format": "cell-based, mouse", "conditions": "4 days", "procedure": "In a related experiment, nitric oxide was measured in cell-free media from S91 cells following treatment with a range of concentrations of 2,3-cis/exo-pinanediol or 5-norbornene-2,2-dimethanol for 4 days. In biological fluids, nitric oxide is converted into nitrite and nitrate with seconds of production. Therefore, nitric oxide is measured by first converting nitrate to nitrite using nitrate reductase, followed by addition of Greiss reagent to detect nitrite as optical density at 550 nm (Moshage, et al., 1995, Clin. Chem. 41:892-896; Schmidt, et al., 1995, Biochemica 2:22)). […] Moreover, the relative melanogenic potency of 2,3-cis/exo-pinanediol and 5-norbornene-2,2-dimethanol shown in FIG. 5 paralleled the relative potency of these compounds with regards to induction of nitric oxide (Table 17). […] It follows that measurement of induction of nitric oxide, cGMP or PKG may provide biochemically relevant screening assays for compounds that may be melanogenic. Thus, the utilization of these assays to screen compounds for melanogenic activity is claimed in the present invention."}}}
{"compound": "CC(O)CO", "note": "(stereo not shown) [1,2-propanediol, 1,2-Propanediol (Propylene Glycol)]", "values": [{"measurement": "Morphology Flattened Cuboidal", "setting": "[1]; 50 mM", "value": 25, "unit": "%"}, {"measurement": "Morphology Rounded Spindly", "setting": "[1]; 50 mM", "value": 75, "unit": "%"}, {"measurement": "Morphology Flattened Cuboidal", "setting": "[1]; 150 mM", "value": 50, "unit": "%"}, {"measurement": "Morphology Rounded Spindly", "setting": "[1]; 150 mM", "value": 50, "unit": "%"}, {"measurement": "Morphology Flattened Cuboidal", "setting": "[1]; 1% (136 mM)", "value": 10, "unit": "%"}, {"measurement": "Morphology Rounded Spindly", "setting": "[1]; 1% (136 mM)", "value": 90, "unit": "%"}, {"measurement": "Morphology Flattened Cuboidal", "setting": "[1]; 2% (272 mM)", "value": 30, "unit": "%"}, {"measurement": "Morphology Rounded Spindly", "setting": "[1]; 2% (272 mM)", "value": 70, "unit": "%"}, {"measurement": "Morphology Flattened Cuboidal", "setting": "[1]; 3% (408 mM)", "value": 60, "unit": "%"}, {"measurement": "Morphology Rounded Spindly", "setting": "[1]; 3% (408 mM)", "value": 40, "unit": "%"}, {"measurement": "Morphology Flattened Cuboidal", "setting": "[1]; 4% (544 mM)", "value": 85, "unit": "%"}, {"measurement": "Morphology Rounded Spindly", "setting": "[1]; 4% (544 mM)", "value": 15, "unit": "%"}, {"measurement": "Morphology Flattened Cuboidal", "setting": "[1]; 5% (680 mM)", "value": 100, "unit": "%"}, {"measurement": "Cells (×10^6)", "setting": "[2]; 50 mM", "value": "0.084 ×10^6"}, {"measurement": "Cells (×10^6)", "setting": "[2]; 150 mM", "value": "0.072 ×10^6"}, {"measurement": "Cells (×10^6)", "setting": "[2]; 1% (136 mM), 6 days", "value": "0.52 ×10^6"}, {"measurement": "Cells (×10^6)", "setting": "[2]; 2% (272 mM), 6 days", "value": "0.50 ×10^6"}, {"measurement": "Cells (×10^6)", "setting": "[2]; 3% (408 mM), 6 days", "value": "0.20 ×10^6"}, {"measurement": "Cells (×10^6)", "setting": "[2]; 4% (544 mM), 6 days", "value": "0.10 ×10^6"}, {"measurement": "Cells (×10^6)", "setting": "[2]; 5% (680 mM), 6 days", "value": "0.08 ×10^6"}, {"measurement": "effect on cell proliferation", "setting": "[2]; levels used in this experiment (50 and 150 mM)", "value": "no reduction of cell proliferation"}, {"measurement": "Trypsinization Detachment Time", "setting": "[3]; 50 mM", "value": 3, "unit": "min"}, {"measurement": "Trypsinization Detachment Time", "setting": "[3]; 150 mM", "value": 6, "unit": "min"}, {"measurement": "Trypsinization Detachment Time", "setting": "[3]; 1% (136 mM)", "value": "≦6 min"}, {"measurement": "Trypsinization Detachment Time", "setting": "[3]; 2% (272 mM)", "value": "≦9 min"}, {"measurement": "Trypsinization Detachment Time", "setting": "[3]; 3% (408 mM)", "value": "≦12 min"}, {"measurement": "Trypsinization Detachment Time", "setting": "[3]; 4% (544 mM)", "value": "≦15 min"}, {"measurement": "Trypsinization Detachment Time", "setting": "[3]; 5% (680 mM)", "value": "≦15 min"}]}
{"compound": "OCC1(CO)CC2C=CC1C2", "note": "(stereo not shown) [5-NBene-2,2-DM, 5-norbornene-2,2-dimethanol]", "values": [{"measurement": "Cells (×10^6)", "setting": "[2]; 1 mM, 4 days, X ± SE, n = 3", "value": "0.423 ± 0.052 ×10^6"}, {"measurement": "Cells (×10^6)", "setting": "[2]; 2.5 mM, 4 days, X ± SE, n = 3", "value": "0.269 ± 0.040 ×10^6"}, {"measurement": "Cells (×10^6)", "setting": "[2]; 5 mM, 4 days, X ± SE, n = 3", "value": "0.090 ± 0.011 ×10^6"}, {"measurement": "toxicity to S91 cells", "setting": "[2]; concentrations that induce much higher levels of tyrosinase", "value": "nontoxic"}, {"measurement": "increase of length of dendrites of NHEM", "setting": "[4]", "value": "2-3 fold"}, {"measurement": "morphological changes of NHEM (in words)", "setting": "[4]", "value": "conversion of cells from a bipolar phenotype to a multidendritic phenotype"}, {"measurement": "nmoles NO/10^6 Cells", "setting": "[5]; 1 mM", "value": "11.6 ± 1.1", "unit": "nmoles NO/10^6 Cells"}, {"measurement": "uM NO", "setting": "[5]; 1 mM", "value": "4.80 ± 0.32", "unit": "µM"}, {"measurement": "nmoles NO/10^6 Cells", "setting": "[5]; 2.5 mM", "value": "21.4 ± 3.7", "unit": "nmoles NO/10^6 Cells"}, {"measurement": "uM NO", "setting": "[5]; 2.5 mM", "value": "5.46 ± 0.32", "unit": "µM"}, {"measurement": "nmoles NO/10^6 Cells", "setting": "[5]; 5 mM", "value": "72.9 ± 10.5", "unit": "nmoles NO/10^6 Cells"}, {"measurement": "uM NO", "setting": "[5]; 5 mM", "value": "6.36 ± 0.12", "unit": "µM"}]}
